Measurements: patent publication US8613914B2, “Peptidomimetic sulfamide compounds and antiviral uses thereof” (Novartis AG, priority 2009, dated 2013)

The compounds below were run against HCV NS3-4A serine protease (full-length NS3-4A protein) (Hepatitis C virus genotype 1a (isolate 1) (HCV), UniProt P26664) (assay: HCV NS3-4A protease assay). Details: strain HCV-1, fluorogenic peptide substrate, read-out: Protease assay Ex. 12 IC50.
Type: biochemical, HCV genotype 1a
Protocol: The inhibitory activity of certain compounds of Table A against HCV NS3-4A serine protease is determined in a homogenous assay using the full-length NS3-4A protein (genotype 1a, strain HCV-1) and a commercially available internally-quenched fluorogenic peptide substrate as described by Taliani, M., et al. 1996 Anal. Biochem. 240:60-67, which is incorporated by reference in its entirety.

Chain of HCV NS3-4A serine protease (full-length NS3-4A protein) (P26664 1027-1657): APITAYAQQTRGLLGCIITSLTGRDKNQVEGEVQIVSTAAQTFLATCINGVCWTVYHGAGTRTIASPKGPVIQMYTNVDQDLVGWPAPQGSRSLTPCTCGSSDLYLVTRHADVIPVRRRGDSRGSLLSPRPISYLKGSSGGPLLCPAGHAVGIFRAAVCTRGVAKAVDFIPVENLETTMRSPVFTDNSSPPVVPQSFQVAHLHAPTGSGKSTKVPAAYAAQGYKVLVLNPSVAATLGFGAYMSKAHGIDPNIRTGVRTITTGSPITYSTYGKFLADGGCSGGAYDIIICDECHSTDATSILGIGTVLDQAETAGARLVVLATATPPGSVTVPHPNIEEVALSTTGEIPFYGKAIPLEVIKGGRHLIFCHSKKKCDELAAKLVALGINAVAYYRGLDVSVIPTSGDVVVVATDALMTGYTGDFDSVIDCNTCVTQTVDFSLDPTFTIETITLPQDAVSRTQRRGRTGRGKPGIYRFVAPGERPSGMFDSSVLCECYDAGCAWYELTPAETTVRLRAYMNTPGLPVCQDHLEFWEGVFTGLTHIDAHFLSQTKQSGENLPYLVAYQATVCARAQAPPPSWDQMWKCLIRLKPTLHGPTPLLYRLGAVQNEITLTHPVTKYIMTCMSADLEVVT
Chain of HCV NS3-4A serine protease (full-length NS3-4A protein) (P26664 1658-1711 partner): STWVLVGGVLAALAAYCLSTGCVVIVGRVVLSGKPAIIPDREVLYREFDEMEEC

Row | Compound | IC50 [nM]
1 | C=C[C@@H]1C[C@]1(NC(=O)[C@@H]1C[C@@]2(CN1C(=O)[C@@H](NC(=O)[C@@H](NC(=O)[C@@H]1CCCN1CC)C1CCCCC1)C(C)(C)C)C(C)(C)C21CCC1)C(=O)NS(=O)(=O)N(CC)CCC [Compound 107, (5R,8S)-7-[(2S)-2-{[(2S)-2-cyclohexyl-2-({[(2S)-1-ethylpyrrolidin-2-yl]carbonyl}amino)acetyl]amino}-3,3-dimethylbutanoyl]-N-[(1R,2S)-1-({[ethyl(propyl)amino]sulfonyl}carbamoyl)-2-vinylcyclopropyl]-10,10-dimethyl-7-azadispiro[3.0.4.1]decane-8-carboxamide] | 9
2 | C=C[C@@H]1C[C@]1(NC(=O)[C@@H]1C[C@@]2(CN1C(=O)[C@@H](NC(=O)[C@@H](NC(=O)[C@@H]1CCCCN1C(C)C)C1CCCCC1)C(C)(C)C)C(C)(C)C21CCC1)C(=O)NS(=O)(=O)N(C)C(C)C [Compound 108, (5R,8S)-7-[(2S)-2-{[(2S)-2-cyclohexyl-2-({[(2S)-1-isopropylpiperidin-2-yl]carbonyl}amino)acetyl]amino}-3,3-dimethylbutanoyl]-N-[(1R,2S)-1-({[isopropyl(methyl)amino]sulfonyl}carbamoyl)-2-vinylcyclopropyl]-10,10-dimethyl-7-azadispiro[3.0.4.1]decane-8-carboxamide] | 6
3 | C=C[C@@H]1C[C@]1(NC(=O)[C@@H]1C[C@@]2(CN1C(=O)[C@@H](NC(=O)[C@@H](NC(=O)[C@@H]1CCCCN1C(C)C)C1CCCCC1)C(C)(C)C)C(C)(C)C21CCC1)C(=O)NS(=O)(=O)N(CC)C(C)C [Compound 110, (5R,8S)-7-[(2S)-2-{[(2S)-2-cyclohexyl-2-({[(2S)-1-isopropylpiperidin-2-yl]carbonyl}amino)acetyl]amino}-3,3-dimethylbutanoyl]-N-[(1R,2S)-1-({[ethyl(isopropyl)amino]sulfonyl}carbamoyl)-2-vinylcyclopropyl]-10,10-dimethyl-7-azadispiro[3.0.4.1]decane-8-carboxamide] | 8
4 | C=C[C@@H]1C[C@]1(NC(=O)[C@@H]1C[C@@]2(CN1C(=O)[C@@H](NC(=O)[C@@H](NC(=O)[C@@H]1CCCN1CC)C1CCCCC1)C(C)(C)C)C(C)(C)C21CCC1)C(=O)NS(=O)(=O)N(CC)C(C)C [Compound 111, (5R,8S)-7-[(2S)-2-{[(2S)-2-cyclohexyl-2-({[(2S)-1-ethylpyrrolidin-2-yl]carbonyl}amino)acetyl]amino}-3,3-dimethylbutanoyl]-N-[(1R,2S)-1-({[ethyl(isopropyl)amino]sulfonyl}carbamoyl)-2-vinylcyclopropyl]-10,10-dimethyl-7-azadispiro[3.0.4.1]decane-8-carboxamide] | 8
5 | C=C[C@@H]1C[C@]1(NC(=O)[C@@H]1C[C@@]2(CN1C(=O)[C@@H](NC(=O)[C@@H](NC(=O)[C@@H]1CCCCN1C(C)C)C1CCCCC1)C(C)(C)C)C(C)(C)C21CCC1)C(=O)NS(=O)(=O)N(C)CCC [Compound 112, (5R,8S)-7-[(2S)-2-{[(2S)-2-cyclohexyl-2-({[(2S)-1-isopropylpiperidin-2-yl]carbonyl}amino)acetyl]amino}-3,3-dimethylbutanoyl]-10,10-dimethyl-N-[(1R,2S)-1-({[methyl(propyl)amino]sulfonyl}carbamoyl)-2-vinylcyclopropyl]-7-azadispiro[3.0.4.1]decane-8-carboxamide] | 1.4
6 | C=C[C@@H]1C[C@]1(NC(=O)[C@@H]1C[C@@]2(CN1C(=O)[C@@H](NC(=O)[C@@H](NC(=O)[C@@H]1CCCCN1C(C)C)C1CCCCC1)C(C)(C)C)C(C)(C)C21CCC1)C(=O)NS(=O)(=O)N1CCCCC1 [Compound 113, (5R,8S)-7-[(2S)-2-{[(2S)-2-cyclohexyl-2-({[(2S)-1-isopropylpiperidin-2-yl]carbonyl}amino)acetyl]amino}-3,3-dimethylbutanoyl]-10,10-dimethyl-N-{(1R,2S)-1-[(piperidin-1-ylsulfonyl)carbamoyl]-2-vinylcyclopropyl}-7-azadispiro[3.0.4.1]decane-8-carboxamide] | 3.5
7 | C=C[C@@H]1C[C@]1(NC(=O)[C@@H]1C[C@@]2(CN1C(=O)[C@@H](NC(=O)[C@@H](NC(=O)[C@H]1CCCCN1C(C)C)C1CCCCC1)C(C)(C)C)C(C)(C)C21CCC1)C(=O)NS(=O)(=O)N(C)CCC [Compound 114, (5R,8S)-7-[(2S)-2-{[(2S)-2-cyclohexyl-2-({[(2R)-1-isopropylpiperidin-2-yl]carbonyl}amino)acetyl]amino}-3,3-dimethylbutanoyl]-10,10-dimethyl-N-[(1R,2S)-1-({[methyl(propyl)amino]sulfonyl}carbamoyl)-2-vinylcyclopropyl]-7-azadispiro[3.0.4.1]decane-8-carboxamide] | 4.5
8 | C=C[C@@H]1C[C@]1(NC(=O)[C@@H]1C[C@@]2(CN1C(=O)[C@@H](NC(=O)[C@@H](NC(=O)[C@H]1CCCCN1C(C)C)C1CCCCC1)C(C)(C)C)C(C)(C)C21CCC1)C(=O)NS(=O)(=O)N1CCCCC1 [Compound 115, (5R,8S)-7-[(2S)-2-{[(2S)-2-cyclohexyl-2-({[(2R)-1-isopropylpiperidin-2-yl]carbonyl}amino)acetyl]amino}-3,3-dimethylbutanoyl]-10,10-dimethyl-N-{(1R,2S)-1-[(piperidin-1-ylsulfonyl)carbamoyl]-2-vinylcyclopropyl}-7-azadispiro[3.0.4.1]decane-8-carboxamide] | 4.5
9 | CC[C@@H]1C[C@]1(NC(=O)[C@@H]1C[C@@]2(CN1C(=O)[C@@H](NC(=O)[C@@H](NC(=O)[C@@H]1CCCN1C(C)C)C1CCCCC1)C(C)(C)C)C(C)(C)C21CCC1)C(=O)NS(=O)(=O)N1CCCC1 [Compound 116, (5R,8S)-7-[(2S)-2-{[(2S)-2-cyclohexyl-2-({[(2S)-1-isopropylpyrrolidin-2-yl]carbonyl}amino)acetyl]amino}-3,3-dimethylbutanoyl]-N-{(1R,2R)-2-ethyl-1-[(pyrrolidin-1-ylsulfonyl)carbamoyl]cyclopropyl}-10,10-dimethyl-7-azadispiro[3.0.4.1]decane-8-carboxamide] | 4.5
10 | CC[C@@H]1C[C@]1(NC(=O)[C@@H]1C[C@@]2(CN1C(=O)[C@@H](NC(=O)[C@@H](NC(=O)[C@@H]1CCCN1C(C)C)C1CCCCC1)C(C)(C)C)C(C)(C)C21CCC1)C(=O)NS(=O)(=O)N(CC)CC [Compound 117, (5R,8S)-7-[(2S)-2-{[(2S)-2-cyclohexyl-2-({[(2S)-1-isopropylpyrrolidin-2-yl]carbonyl}amino)acetyl]amino}-3,3-dimethylbutanoyl]-N-[(1R,2R)-1-{[(diethylamino)sulfonyl]carbamoyl}-2-ethylcyclopropyl]-10,10-dimethyl-7-azadispiro[3.0.4.1]decane-8-carboxamide] | 5.5
11 | C=C[C@@H]1C[C@]1(NC(=O)[C@@H]1C[C@@]2(CN1C(=O)[C@@H](NC(=O)[C@@H](NC(=O)[C@@H]1CCCCN1C)C1CCCCC1)C(C)(C)C)C(C)(C)C21CCC1)C(=O)NS(=O)(=O)N(CC)CC [Compound 118, (5R,8S)-7-[(2S)-2-{[(2S)-2-cyclohexyl-2-({[(2S)-1-methylpiperidin-2-yl]carbonyl}amino)acetyl]amino}-3,3-dimethylbutanoyl]-N-[(1R,2S)-1-{[(diethylamino)sulfonyl]carbamoyl}-2-vinylcyclopropyl]-10,10-dimethyl-7-azadispiro[3.0.4.1]decane-8-carboxamide] | 4.5
